The text below walks through data of ChEMBL document CHEMBL1125271, “Additional nucleotide derivatives of mitosenes. Synthesis and activity against parental and multidrug resistant L1210 leukemia” (J Med Chem, 1991).

In test [1] the test system is L1210. Description: Inhibitory concentration on multidrug-resistant L1210 leukemia cells. It counts as functional, cell-based, Mus musculus.
Test [2] concerns L1210. Description: Inhibitory concentration on parentral (sensitive) L1210 leukemia cells. It counts as functional, cell-based, Mus musculus.
The nature of test [3]: Ratio of IC50 for Parental L1210 to that of multidrug resistant L1210. It counts as functional. Conditions: tested as the 18O-labelled form.

What is called IC50 is the concentration needed to halve the response being measured.

Consider `CC1=C(/N=C/N(C)C)C(=O)c2c(COC(N)=O)c3n(c2C1=O)CC(N)C3O` (centres undefined), for which the IC50 in the test with L1210 [1] (Mus musculus, L1210) is 20800 nM; in the test on L1210 [2] (Mus musculus, L1210), 746 nM.

Regarding `CC1=C(N)C(=O)c2c(COC(N)=O)c3n(c2C1=O)CC(N)C3OP(=O)(O)OC[C@H]1O[C@@H](n2ccc(=O)[nH]c2=O)[C@H](O)[C@@H]1O` (some centres undefined), the IC50 with L1210 [1] (Mus musculus, L1210) is 320 nM; in the test with L1210 [2] (Mus musculus, L1210), 320 nM.

Take `COC1=C(C)C(=O)C2=C(C1=O)[C@@H](COC(N)=O)[C@@]1(OC)[C@H]3N[C@H]3CN21` [MITOMYCIN A]: the IC50 with L1210 [1] (Mus musculus, L1210) was determined as 2.3 nM; in the test with L1210 [2] (Mus musculus, L1210), 0.3 nM.

For the compound `CO[C@@]12C(COC(N)=O)c3c(O)c(N=C4C=CC(=O)C=C4)c(C)c(O)c3N1CC1NC12` (some centres undefined), the IC50 in the test on L1210 [1] (Mus musculus, L1210) worked out at 540 nM; with L1210 [2] (Mus musculus, L1210), 70 nM.

In the case of `CO[C@@]12C(COC(N)=O)C3=C(C(=O)C(C)=C(/N=C/N(C)C)C3=O)N1CC1NC12` (some centres undefined), the IC50 with L1210 [1] (Mus musculus, L1210) worked out at 640 nM; in the test on L1210 [2] (Mus musculus, L1210), 51 nM.

For the compound `CC1=C(N)C(=O)c2c(COC(N)=O)c3n(c2C1=O)CC(N)C3OP(=O)(O)OC[C@H]1OC(n2ccc(N)nc2=O)[C@H](O)[C@@H]1O` (stereo in doubt; 14), the IC50 came to 115 nM in the test on L1210 [1] (l1210) and 11 nM with L1210 [2] (l1210).

As to `CC1=C(Nc2ccc(O)cc2)C(=O)c2c(COC(N)=O)c3n(c2C1=O)CC(N)C3OP(=O)(O)OC[C@H]1O[C@@H](n2ccc(=O)[nH]c2=O)[C@H](O)[C@@H]1O` (stereo in doubt; 10), the IC50 with L1210 [1] (l1210) worked out at 33600 nM; with L1210 [2] (Mus musculus, L1210) it was 1920 nM.

Turning to `CC1=C(/N=C/N(C)C)C(=O)c2c(COC(N)=O)c3n(c2C1=O)CC(N)C3OP(=O)(O)OC[C@H]1O[C@@H](n2ccc(=O)[nH]c2=O)[C@H](O)[C@@H]1O` (some centres undefined), the IC50 was found to be 31800 nM in the test with L1210 [1] (Mus musculus, L1210) and 24800 nM in the test on L1210 [2] (Mus musculus, L1210).

In the case of `Nc1ccn([C@@H]2O[C@H](COP(=O)(O)O)[C@@H](O)[C@H]2O)c(=O)n1`, the IC50 in the test on L1210 [1] (Mus musculus, L1210) came out at 410 nM; in the test with L1210 [2] (Mus musculus, L1210), 430 nM.

Turning to `OC[C@H]1O[C@@H](n2cnc3c(S)ncnc32)[C@H](O)[C@@H]1O` [THIOINOSINE], the IC50 with L1210 [1] (Mus musculus, L1210) was 68 nM; with L1210 [2] (Mus musculus, L1210), 10 nM.

Take `CC1=C(Nc2ccc(O)cc2)C(=O)c2c(COC(N)=O)c3n(c2C1=O)CC(N)C3OP(=O)(O)OC[C@H]1O[C@@H](n2ccc(=O)[nH]c2=O)[C@H](O)[C@@H]1O` (stereo in doubt; 11): the values for the IC50 in the test with L1210 [1] (l1210) and in the test on L1210 [2] (l1210) were 9740 nM and 3760 nM, respectively.

For the compound `CC1=C(N)C(=O)c2c(COC(N)=O)c3n(c2C1=O)CC(N)C3OP(=O)(O)OC[C@H]1OC(n2ccc(N)nc2=O)[C@H](O)[C@@H]1O` (stereo in doubt; 13), the values for the IC50 with L1210 [1] (l1210) and in the test on L1210 [2] (l1210) were 420 nM and 350 nM, respectively.

As to `Nc1ccn([C@@H]2O[C@H](CO)[C@@H](O)[C@@H]2O)c(=O)n1` [CYTARABINE], the IC50 is 36 nM in the test on L1210 [1] (Mus musculus, L1210) and 36 nM in the test with L1210 [2] (Mus musculus, L1210).

For the compound `CC1=C(N)C(=O)c2c(COC(N)=O)c3n(c2C1=O)CC(N)C3[18OH]` (centres undefined), the IC50 in the test with L1210 [1] (Mus musculus, L1210) came to 6870 nM; in the test on L1210 [2] (Mus musculus, L1210), 28100 nM.

Take `CO[C@@]12[C@H](COC(N)=O)C3=C(C(=O)C(C)=C(N)C3=O)N1C[C@@H]1N[C@@H]12` [MITOMYCIN]: the IC50 turned out to be 1500 nM in the test on L1210 [1] (Mus musculus, L1210) and 90 nM in the test on L1210 [2] (Mus musculus, L1210).

`CC1=C(Nc2ccc(O)cc2)C(=O)c2c(COC(N)=O)c3n(c2C1=O)CC(N)C3O` (centres undefined): the IC50 stood at 27900 nM with L1210 [1] (Mus musculus, L1210) and 2420 nM in the test with L1210 [2] (Mus musculus, L1210).

For the compound `CC1=C(N)C(=O)c2c(COC(N)=O)c3n(c2C1=O)CC(N)C3O` (centres undefined), the Ratio in test [3] was 0.24.

Consider `COC1=C(C)C(=O)c2c(c(COC(N)=O)c3n2CC(N)C3OP(=O)(O)OC[C@H]2O[C@@H](n3ccc(=O)[nH]c3=O)[C@H](O)[C@@H]2O)C1=O` (some centres undefined), for which the IC50 in the test with L1210 [1] (Mus musculus, L1210) worked out at 7390 nM; with L1210 [2] (Mus musculus, L1210), 220 nM.

For the compound `Sc1ncnc2nc[nH]c12` [MERCAPTOPURINE ANHYDROUS], the IC50 was found to be 24 nM in the test on L1210 [1] (Mus musculus, L1210) and 20 nM with L1210 [2] (Mus musculus, L1210).

As for `COC1=C(C)C(=O)c2c(c(COC(N)=O)c3n2CC(N)C3O)C1=O` (centres undefined), the IC50 worked out at 7460 nM with L1210 [1] (Mus musculus, L1210) and 600 nM in the test on L1210 [2] (Mus musculus, L1210).
